Where two headings read alike, the source gives them in different places.
How the values were obtained:
[1] = tested on: SN12C; experiment: NCI in vitro SRB assay, Renal Cancer; assay type: cell-based; conditions: for GI50 / CC50: Homo sapiens
Method: (§1) An in vitro assay which tested the ability of N,N,-diethyl-8,8-dipropyl-2-azaspiro[4,5]decane-2-propanamine dimaleate (Compound 1) to inhibit the growth of known cancer cell lines was performed by the National Cancer Institute in accordance with standard procedures. See: Lin, Z. X., Hoult, J. R., and Raman, A. Sulphorhodamine B assay for measuring proliferation of a pigmented melanocyte cell line and its application to the evaluation of crude drugs used in the treatment of vitiligo. J Ethnopharmacol. 66: 141-150, 1999. Briefly, selected tumor cell lines were cultured in media containing five different concentrations of Compound 1. After 48 hours of continuous exposure, a sulforhodamine B (SRB) assay was used to estimate cell viability or growth via optical measurements.
(§2) From the measurements, the following values were determined: 1) the concentration of Compound 1 at which a tumor cell growth inhibition of 50% (relative to control) occurs (GI50), 2) the concentration of Compound 1 at which no growth occurs (total growth inhibition, TGI), and 3) the concentration of Compound 1 at which the […] (LC 50). […] FIG. 6 illustrates, graphically, tumor cell growth as a function of Compound 1 concentration of the scanned tumor cell lines.

[2] = tested on: UO-31; experiment: NCI in vitro SRB assay, Renal Cancer; assay type: cell-based; conditions: for CC50 / GI50: Homo sapiens
Method: as §1, §2

[3] = tested on: RXF 393; experiment: NCI in vitro SRB assay, Renal Cancer; assay type: cell-based; conditions: for CC50 / GI50: Homo sapiens
Method: as §1, §2

[4] = tested on: TK-10; experiment: NCI in vitro SRB assay, Renal Cancer; assay type: cell-based; conditions: for CC50 / GI50: Homo sapiens
Method: as §1, §2

[5] = tested on: ACHN; experiment: NCI in vitro SRB assay, Renal Cancer; assay type: cell-based; conditions: for GI50: Homo sapiens
Method: as §1, §2

[6] = tested on: A498; experiment: NCI in vitro SRB assay, Renal Cancer; assay type: cell-based; conditions: for GI50: Homo sapiens
Method: as §1, §2

[7] = tested on: HUVEC; experiment: HUVEC cell migration assay (Boyden chamber); assay type: cell-based; conditions: Homo sapiens, 5 hours incubation, read-out: IC50 Concentration, Migration
Method: Migration is assessed using the 48-well Boyden chamber and 8 μm pore size collagen-coated (10 μg/ml rat tail collagen; Collaborative Laboratories) polycarbonate filters (Osmonics, Inc.). The bottom chamber wells receive 27-29 μl of Dulbecco's Modified Eagle Medium (“DMEM”) alone (baseline) or medium containing chemo-attractant (bFGF, VEGF or […] cell conditioned medium). The top chambers receive 45 μl of a HUVEC cell suspension (1×10^6 cells/ml) prepared in DMEM+1% Bovine Serum Albumin (“BSA”) with or without test compound. After 5 hours incubation at 37° C. the membrane is rinsed in Phosphate Buffer Saline (“PBS”), fixed and stained in Diff-Quick solutions. The filter is placed on a glass slide with the migrated cells facing down and cells on top are removed using a Kimwipe. The testing is performed in 4-6 replicates and five fields are counted from each well. Negative unstimulated control values are subtracted from stimulated control and drug treated values and data is plotted as mean migrated cell±Standard Deviation.

[8] = tested on: chorioallantoic membrane (CAM); experiment: Anti-angiogenesis CAM assay; assay type: in vivo, White Leghorn eggs; conditions: 48 hour exposure, ten eggs
Method: The dosing was effected by pipetting 40 μl of the indicated solution onto a 13 mm round Thermanox® coverslip and allowing it to air dry. After the material appeared dry, the coverslip was placed onto the chorioallantoic membrane (CAM) of each egg insuring contact of the dried test article with the CAM. After dosing, the eggs were returned to the incubator for approximately 48 hours. Following the 48 hour exposure period, the eggs were removed from the incubator, observed for viability, and the exposed area under the coverslip was examined for loss of vasculature.

[9] = read-out: Log10 GI50 (converted)
[10] = RXF 393, Log10 conc -4.0 Moles/L
[11] = RXF 393, Log10 conc -5.0 Moles/L
[12] = RXF 393, Log10 conc -6.0 Moles/L
[13] = RXF 393, Log10 conc -7.0 Moles/L
[14] = RXF 393, Log10 conc -8.0 Moles/L

CCCC1(CCC)CCC2(CCN(CCCN(CC)CC)C2)CC1.O=C(O)/C=C\C(=O)O.O=C(O)/C=C\C(=O)O [Compound 1, N,N,-diethyl-8,8-dipropyl-2-azaspiro[4,5]decane-2-propanamine dimaleate]
Log10 TGI [1]: −5.55
TGI [1]: 2820 nM
GI50 ([1]; read-out: GI50): 1290 nM
CC50 ([1]; read-out: LC50): 6170 nM
GI50 [1, 9]: 1290 nM
CC50 ([1]; read-out: Log10 LC50 (converted)): 6170 nM
Mean Optical Densities ([1]; Log10 conc -4.0 Moles/L): 0.036
Percent Growth ([1]; Log10 conc -4.0 Moles/L): −90%
Mean Optical Densities ([1]; Log10 conc -5.0 Moles/L): 0.069
Percent Growth ([1]; Log10 conc -5.0 Moles/L): −81%
Mean Optical Densities ([1]; Log10 conc -6.0 Moles/L): 0.668
Percent Growth ([1]; Log10 conc -6.0 Moles/L): 66%
Mean Optical Densities ([1]; Log10 conc -7.0 Moles/L): 0.701
Percent Growth ([1]; Log10 conc -7.0 Moles/L): 73%
Mean Optical Densities ([1]; Log10 conc -8.0 Moles/L): 0.717
Percent Growth ([1]; Log10 conc -8.0 Moles/L): 76%
CC50 ([2]; UO-31, read-out: LC50): 5030 nM
CC50 ([2]; UO-31, read-out: Log10 LC50 (converted)): 5010 nM
GI50 ([2]; UO-31, read-out: GI50): 1200 nM
GI50 ([2]; UO-31, read-out: Log10 GI50 (converted)): 1200 nM
Log10 TGI ([2]; UO-31): −5.61
TGI ([2]; UO-31): 2450 nM
Mean Optical Densities ([2]; UO-31, Log10 conc -4.0 Moles/L): 0.039
Percent Growth ([2]; UO-31, Log10 conc -4.0 Moles/L): −87%
Mean Optical Densities ([2]; UO-31, Log10 conc -5.0 Moles/L): 0.006
Percent Growth ([2]; UO-31, Log10 conc -5.0 Moles/L): −98%
Mean Optical Densities ([2]; UO-31, Log10 conc -6.0 Moles/L): 0.833
Percent Growth ([2]; UO-31, Log10 conc -6.0 Moles/L): 63%
Mean Optical Densities ([2]; UO-31, Log10 conc -7.0 Moles/L): 1.056
Percent Growth ([2]; UO-31, Log10 conc -7.0 Moles/L): 89%
Mean Optical Densities ([2]; UO-31, Log10 conc -8.0 Moles/L): 1.076
Percent Growth ([2]; UO-31, Log10 conc -8.0 Moles/L): 91%
CC50 ([3]; RXF 393, read-out: LC50): 7100 nM
CC50 ([3]; RXF 393, read-out: Log10 LC50 (converted)): 7080 nM
GI50 ([3]; RXF 393, read-out: GI50): 1640 nM
GI50 ([3]; RXF 393, read-out: Log10 GI50 (converted)): 1620 nM
Log10 TGI ([3]; RXF 393): −5.47
TGI ([3]; RXF 393): 3410 nM
Mean Optical Densities [3, 10]: 0.083
Percent Growth [3, 10]: −74%
Mean Optical Densities [3, 11]: 0.086
Percent Growth [3, 11]: −73%
Mean Optical Densities [3, 12]: 0.943
Percent Growth [3, 12]: 84%
Mean Optical Densities [3, 13]: 1.028
Percent Growth [3, 13]: 95%
Mean Optical Densities [3, 14]: 1.017
Percent Growth [3, 14]: 94%
CC50 ([4]; TK-10, read-out: LC50): 5520 nM
CC50 ([4]; TK-10, read-out: Log10 LC50 (converted)): 5500 nM
GI50 ([4]; TK-10, read-out: GI50): 1270 nM
GI50 ([4]; TK-10, read-out: Log10 GI50 (converted)): 1260 nM
Log10 TGI ([4]; TK-10): −5.58
TGI ([4]; TK-10): 2650 nM
Mean Optical Densities ([4]; TK-10, Log10 conc -4.0 Moles/L): 0.101
Percent Growth ([4]; TK-10, Log10 conc -4.0 Moles/L): −89%
Mean Optical Densities ([4]; TK-10, Log10 conc -5.0 Moles/L): 0.087
Percent Growth ([4]; TK-10, Log10 conc -5.0 Moles/L): −90%
Mean Optical Densities ([4]; TK-10, Log10 conc -6.0 Moles/L): 1.283
Percent Growth ([4]; TK-10, Log10 conc -6.0 Moles/L): 66%
Mean Optical Densities ([4]; TK-10, Log10 conc -7.0 Moles/L): 1.389
Percent Growth ([4]; TK-10, Log10 conc -7.0 Moles/L): 85%
Mean Optical Densities ([4]; TK-10, Log10 conc -8.0 Moles/L): 1.449
Percent Growth ([4]; TK-10, Log10 conc -8.0 Moles/L): 96%
Log10 TGI [5]: −5.55
TGI [5]: 2810 nM
GI50 ([5]; read-out: GI50): 1490 nM
GI50 [5, 9]: 1480 nM
Mean Optical Densities ([5]; Log10 conc -4.0 Moles/L): −0.041
Percent Growth ([5]; Log10 conc -4.0 Moles/L): −100%
Mean Optical Densities ([5]; Log10 conc -5.0 Moles/L): −0.031
Percent Growth ([5]; Log10 conc -5.0 Moles/L): −100%
Mean Optical Densities ([5]; Log10 conc -6.0 Moles/L): 0.705
Percent Growth ([5]; Log10 conc -6.0 Moles/L): 81%
Mean Optical Densities ([5]; Log10 conc -7.0 Moles/L): 0.711
Percent Growth ([5]; Log10 conc -7.0 Moles/L): 83%
Mean Optical Densities ([5]; Log10 conc -8.0 Moles/L): 0.721
Percent Growth ([5]; Log10 conc -8.0 Moles/L): 85%
Log10 TGI [6]: −5.50
TGI [6]: 3130 nM
GI50 ([6]; read-out: GI50): 1680 nM
GI50 [6, 9]: 1700 nM
Mean Optical Densities ([6]; Log10 conc -4.0 Moles/L): 0.157
Percent Growth ([6]; Log10 conc -4.0 Moles/L): −85%
Mean Optical Densities ([6]; Log10 conc -5.0 Moles/L): 0.065
Percent Growth ([6]; Log10 conc -5.0 Moles/L): −94%
Mean Optical Densities ([6]; Log10 conc -6.0 Moles/L): 1.336
Percent Growth ([6]; Log10 conc -6.0 Moles/L): 92%
Mean Optical Densities ([6]; Log10 conc -7.0 Moles/L): 1.327
Percent Growth ([6]; Log10 conc -7.0 Moles/L): 89%
Mean Optical Densities ([6]; Log10 conc -8.0 Moles/L): 1.297
Percent Growth ([6]; Log10 conc -8.0 Moles/L): 79%
IC50 [7]: 530 nM
Dead Eggs ([8]; Dose per egg 25 μg (0.625 mg/ml)): 0
Dead Eggs ([8]; Dose per egg 50 μg (1.25 mg/ml)): 0
Dead Eggs ([8]; Dose per egg 100 μg): 4
Dead Eggs ([8]; Dose per egg 200 μg (5 mg/ml)): 3
Dead Eggs ([8]; Dose per egg 400 μg (10 mg/ml)): 7

Reference: patent US20050250801A1, “Method of treating cancer with azaspirane compositions” (priority 2003, published 2005)
